Laboratory results published in EP4458352A1, “EICOSAPENTAENOIC ACID ESTER DERIVATIVES FOR THE TREATMENT OF OBESITY” (Technische Universität Dresden, priority 2023, dated 2024).

Legend:
NCI-H295R cells [1] = experiment: Steroid production in forskolin-treated NCI-H295R cells treated with SC-26196; format: cell-based, Human; details: FADS2 inhibition (SC-26196)
Description: (§1) NCI-H295R cells (obtained from ATCC Cat# CRL-2128) were maintained in DMEM/F12 medium supplemented with 2.5 % Nu-Serum type I (Corning), 1 % Insulin Transferrin Selenium (ITS; Gibco), 50 U/mL penicillin and 50 µg/mL streptomycin. They were treated for 18 h with 10 µM SC-26196 or DMSO. In some experiments, NCI-H295R cells were treated or not for 48 h 66 µM EPA and in the last 24 h they were stimulated or not with forskolin (10 µM; Sigma-Aldrich).
Steroid hormones in plasma and cell culture supernatants were analyzed by LC-MS/MS as previously described (71). Fifty to hundred µL plasma or cell culture supernatants were extracted by solid phase extraction using positive pressure, followed by a dry-down under gentle stream of nitrogen. Residues were reconstituted in 100 µL of the initial LC mobile phase and 10 µL were injected for detection by the triple quadrupole mass spectrometer in multiple reaction-monitoring scan mode using positive electrospray ionization. Quantification of steroid concentrations was done by comparisons of ratios of analyte peak areas to respective peak areas of stable isotope labeled internal standards obtained in samples to those of calibrators.

NCI-H295R cells [2] = experiment: Lipidomic analysis (LC-MS/MS) of mitochondrial fractions of NCI-H295R cells treated with SC-26196; format: cell-based, Human; details: SC-26196 10 µM, 18 h vs DMSO
Description: as §1
Cells were trypsinized and pelleted by centrifugation (500xg, 5 min, 4 °C). The cells were gently resuspended in homogenization buffer (200 mM mannitol, 50 mM sucrose, 10 mM KCI, […] 25 mM HEPES, pH 7.4, 1 µM aprotinin, 10 µM leupeptin, 20 µM PMSF) and homogenized on ice with 20 strokes of tight Dounce homogenizer. The samples were then centrifuged (800xg, 10 min, 4 °C) to pellet the nuclei. The supernatant was mixed with iodixanol solution (Optiprep, Sigma-Aldrich) to a final concentration of 20 %. The samples were placed at the bottom of a tube and overlaid with 500 µl iodixanol solutions (18 %, 16 %, 14 %, 12 %, 10 %, 5 %) and finally with 500 µl of HBS (50 mM HEPES, 150 mM NaCl, pH 7.4). The samples were centrifuged in Beckman SW60Ti swing-out rotor (45,000 rpm, 5 h, 4 °C). After centrifugation fifteen 280 µl aliquots were collected from top of the tubes.
Fractions 10-12 (SDHB-positive) and 4-5 (HSL-positive) were considered as mitochondrial and lipid droplet fractions, respectively. Protein concentration was measured in the mitochondrial and lipid droplet pools with the BCA Protein Assay Kit (Thermo Fisher) and fractions were analyzed for cholesterol and CE concentrations.
Fractions containing mitochondria were combined and extracted with three volumes of ice-cold chloroform/methanol (10:1, v/v, both containing 0.1 % butylated hydroxytoluene (Merck, ≥99 %)). Samples were incubated on ice for 15 min, before the organic phase was collected after centrifugation (5 min, 5,000 × g). The aqueous phase was re-extracted with two volumes chloroform/methanol as described above. Combined organic phases were dried in vacuo. Methanol (ULC-MS grade, Biosolve B.V.) and chloroform (EMSURE ACS, ISO, Reag. Ph Eur; Supleco) were of highest purity.
Lipid extracts were dissolved in 50 µL 2-propanol (ULC/MS-CC/SFC grade, >99.95 %; Biosolve B.V.) and analyzed by LC-MS/MS. Lipids (2.5 µL loaded in positive mode, 5 µL in negative mode) were separated by reverse phase chromatography (Accucore C30 column; 150 mm × 2.1 mm 2.6 µM 150 Å, Thermo Fisher Scientific) using a Vanquish Horizon UHPLC system (Thermo Fisher Scientific) coupled on-line to a Q Exactive Plus Hybrid Quadrupole Orbitrap mass spectrometer (Thermo Fisher Scientific, Bremen, Germany) equipped with a HESI source. Column was operated at 50 °C and flow rate of 0.3 mL/min. […]

For `N#CC(CCCN1CCN(/N=C/c2cccnc2)CC1)(c1ccccc1)c1ccccc1` [SC-26196], which 11-deoxycortisol production (NCI-H295R cells [1]) is on record?
The 11-deoxycortisol production was “reduced”.

What about the progesterone production (NCI-H295R cells [1]) of the same compound?
The progesterone production was “reduced”.

And the “abundance of PC and PE containing PUFA acyl chains in mitochondrial fractions” value (NCI-H295R cells [2])?
Its value is “reduced”.

And the “lipids with saturated or monounsaturated acyl chains in mitochondrial fractions” value (NCI-H295R cells [2])?
Its value is “increased”.

And the “mitochondrial lipidome (PCA)” value (NCI-H295R cells [2]; n=3)?
The value was “reprogramed the mitochondrial lipidome”.

And the “Cardiolipins in mitochondrial fractions” value (NCI-H295R cells [2]; not shown)?
The value was “remained unaffected”.
